Measured values as given in ChEMBL document CHEMBL2434952, “Morphological changes of some pathogenic microbial strains induced by novel thiadiazole derivatives” (2013).
Active and inactive are the calls of the source. The calls are words filed in the database; no cut-off is given here.

How the values were obtained:
Bacillus cereus [1] = assay: Antibacterial activity against Bacillus cereus assessed as growth inhibition measured after 24 to 48 hrs by agar disk diffusion method in presence of 24.4 Gy gamma-irradiation; type: functional
Bacillus cereus [2] = assay: Antibacterial activity against Bacillus cereus assessed as growth inhibition measured after 24 to 48 hrs by agar disk diffusion method in absence of 24.4 Gy gamma-irradiation; type: functional
[3] = test system: Staphylococcus epidermidis; assay: Antibacterial activity against Staphylococcus epidermidis assessed as growth inhibition measured after 24 to 48 hrs by agar disk diffusion method in presence of 24.4 Gy gamma-irradiation; type: functional
[4] = test system: Staphylococcus epidermidis; assay: Antibacterial activity against Staphylococcus epidermidis assessed as growth inhibition measured after 24 to 48 hrs by agar disk diffusion method in absence of 24.4 Gy gamma-irradiation; type: functional
Staphylococcus aureus [5] = assay: Antibacterial activity against Staphylococcus aureus assessed as growth inhibition measured after 24 to 48 hrs by agar disk diffusion method in presence of 24.4 Gy gamma-irradiation; type: functional
Staphylococcus aureus [6] = assay: Antibacterial activity against Staphylococcus aureus assessed as growth inhibition measured after 24 to 48 hrs by agar disk diffusion method in absence of 24.4 Gy gamma-irradiation; type: functional
Bacillus cereus [7] = assay: Antibacterial activity against Bacillus cereus assessed as growth inhibition measured after 24 to 48 hrs by agar disk diffusion method; type: functional
[8] = test system: Staphylococcus epidermidis; assay: Antibacterial activity against Staphylococcus epidermidis assessed as growth inhibition measured after 24 to 48 hrs by agar disk diffusion method; type: functional
Staphylococcus aureus [9] = assay: Antibacterial activity against Staphylococcus aureus assessed as growth inhibition measured after 24 to 48 hrs by agar disk diffusion method; type: functional
Klebsiella pneumoniae = assay: Antibacterial activity against Klebsiella pneumoniae assessed as growth inhibition measured after 24 to 48 hrs by agar disk diffusion method; type: functional, organism-based
Pseudomonas aeruginosa = assay: Antibacterial activity against Pseudomonas aeruginosa assessed as growth inhibition measured after 24 to 48 hrs by agar disk diffusion method; type: functional, organism-based
Candida albicans = assay: Antifungal activity against Candida albicans assessed as growth inhibition measured after 24 to 48 hrs by agar disk diffusion method; type: functional, organism-based

Compound	inhibition zone (IZ) (Bacillus cereus [1]) [mm]	inhibition zone (IZ) (Bacillus cereus [2]) [mm]	inhibition zone (IZ) [3] [mm]	inhibition zone (IZ) [4] [mm]	inhibition zone (IZ) (Staphylococcus aureus [5]) [mm]	inhibition zone (IZ) (Staphylococcus aureus [6]) [mm]	inhibition zone (IZ) (Bacillus cereus [7])	inhibition zone (IZ) [8]	inhibition zone (IZ) (Staphylococcus aureus [9])	growth inhibition (GI) (Klebsiella pneumoniae)	growth inhibition (GI) (Pseudomonas aeruginosa)	growth inhibition (GI) (Candida albicans)
O=C(Nc1ccccc1)Sc1nnc(N(C(=O)Nc2ccccc2)C(=O)Nc2ccccc2)s1	9	7	12	8	7	7	7 mm	7 mm	15 mm	inactive	inactive	inactive
O=C(CNc1n[nH]c(=S)s1)c1ccccc1	15	15	20	12	20	20	18 mm	15 mm	20 mm	inactive	inactive	inactive
NS(=O)(=O)c1ccc(NC(=S)Nc2n[nH]c(=S)s2)cc1	10	7	10	6	10	10	7 mm	inactive	9 mm	inactive	inactive	inactive
O=C1CSC(Nc2n[nH]c(=S)s2)=N1	11	11	7	7	15	12	9 mm	7 mm	10 mm	inactive	inactive	inactive
O=C(CCl)Nc1n[nH]c(=S)s1	–	–	–	–	–	–	inactive	inactive	inactive	inactive	inactive	inactive
CC(=O)N(C(C)=O)c1n[nH]c(=S)s1	20	11	15	11	17	20	20 mm	13 mm	20 mm	inactive	inactive	inactive
